Source: ChEMBL document CHEMBL5150039 (Bioorg Med Chem, 2022)

Key:
[1] = target: T1, Solute carrier family 22 member 12 (Homo sapiens, UniProt Q96S37); settings: HEK293, human, 8 min, read-out: INH
T1 sequence (Q96S37 whole entry): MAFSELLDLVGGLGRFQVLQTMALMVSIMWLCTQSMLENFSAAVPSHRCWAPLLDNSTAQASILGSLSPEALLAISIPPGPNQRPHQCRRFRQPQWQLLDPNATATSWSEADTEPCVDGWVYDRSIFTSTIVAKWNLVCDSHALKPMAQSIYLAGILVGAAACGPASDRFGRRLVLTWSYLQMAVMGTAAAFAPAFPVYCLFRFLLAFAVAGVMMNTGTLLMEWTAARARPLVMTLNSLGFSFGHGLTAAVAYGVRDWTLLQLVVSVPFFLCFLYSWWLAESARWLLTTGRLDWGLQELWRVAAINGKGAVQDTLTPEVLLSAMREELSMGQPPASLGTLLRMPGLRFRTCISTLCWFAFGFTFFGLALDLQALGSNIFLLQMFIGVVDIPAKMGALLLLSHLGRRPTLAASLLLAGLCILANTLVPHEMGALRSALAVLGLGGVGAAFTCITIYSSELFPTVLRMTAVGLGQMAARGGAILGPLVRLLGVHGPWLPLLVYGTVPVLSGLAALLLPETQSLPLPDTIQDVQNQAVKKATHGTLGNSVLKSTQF

[2] = target: T1, Solute carrier family 22 member 12; settings: HEK293, human, 8 min, read-out: INH; remark: listed apart in the source
Description: Inhibition of URAT1 in human HEK293 cells assessed as inhibition of uric acid uptake at 1000 nM incubated for 8 mins by Microbeta scintillation counting analysis

[3] = target: T2, Bile acid receptor (Homo sapiens, UniProt Q96RI1); test: Agonist activity at FXR (unknown origin) expressed in human HepG2 cells co-transfected with human RXR incubated for 24 hrs by cell-based luciferase transactivation assay
T2 sequence (Q96RI1 whole entry): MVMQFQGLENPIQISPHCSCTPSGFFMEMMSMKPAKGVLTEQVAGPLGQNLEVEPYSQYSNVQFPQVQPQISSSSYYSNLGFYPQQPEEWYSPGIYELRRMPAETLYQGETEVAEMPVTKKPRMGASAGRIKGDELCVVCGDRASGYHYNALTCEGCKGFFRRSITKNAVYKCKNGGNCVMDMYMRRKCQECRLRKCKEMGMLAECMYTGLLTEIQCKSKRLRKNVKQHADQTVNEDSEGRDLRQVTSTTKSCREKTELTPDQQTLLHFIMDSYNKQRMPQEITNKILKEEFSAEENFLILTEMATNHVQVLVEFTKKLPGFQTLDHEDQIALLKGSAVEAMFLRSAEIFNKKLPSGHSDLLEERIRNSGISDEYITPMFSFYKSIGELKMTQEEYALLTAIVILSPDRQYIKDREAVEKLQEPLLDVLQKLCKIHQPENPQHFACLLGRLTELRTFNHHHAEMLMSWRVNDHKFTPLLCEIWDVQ

[4] = target: T1, Solute carrier family 22 member 12; settings: HEK293, human, 8 min, read-out: INH; remark: listed apart in the source
Description: Inhibition of URAT1 in human HEK293 cells assessed as inhibition of uric acid uptake at 100 nM incubated for 8 mins by Microbeta scintillation counting analysis

SMILES	inhibition at 0.3 µM [1] [%]	inhibition at 1 µM [2] [%]	EC50 [3] [µM]	inhibition at 0.1 µM [4] [%]
CCc1oc2ccccc2c1C(=O)c1ccc(OCc2cccc(C(=O)O)c2)cc1	3	12	15.6	1
CCc1oc2ccccc2c1C(=O)c1cc(Br)c(O)c(Br)c1 [BENZBROMARONE]	31	72	–	12
CCc1oc2ccccc2c1C(=O)c1cc(Br)c(OCc2cccc(OCC(=O)O)c2)c(Br)c1	18	31	17.8	3

The remaining lines, values ahead:

inhibition at 0.3 µM [1] [%]	inhibition at 1 µM [2] [%]	EC50 [3] [µM]	inhibition at 0.1 µM [4] [%]	SMILES
23	45	–	6	CCc1oc2ccccc2c1C(=O)c1cc(Br)c(OCCCC(=O)O)c(Br)c1
8	23	10.3	1	CCc1oc2ccccc2c1C(=O)c1cc(Br)c(OCc2ccc(C(=O)O)cc2)c(Br)c1
